Assay results from ChEMBL document CHEMBL3044888, “Fungicidal activity of indole derivatives against some plant pathogenic fungi” (J Pestic Sci, 2010).
In brackets after ≈: the same amount, converted by molar mass.

Experiments:
Rhizoctonia solani [1] = experiment: In vivo effect on peroxidase activity in Rhizoctonia solani assessed as RNA content at 2 times of IC50 concentration (reference value: 25 +/- 0.7 mg/l); type: functional
Macrophomina phaseolina [2] = experiment: In vivo effect on peroxidase activity in Macrophomina phaseoli assessed as reduced sugar content per gram of dry hyphal at 0.25 times of IC50 concentration (reference value: 7.3 +/- 0.5 mg/g of dry weight); type: functional
[3] = Activation of peroxidase activity in Rhizoctonia solani
Fusarium culmorum [4] = experiment: In vivo effect on peroxidase activity in Fusarium culmorum assessed as DNA content at 0.1 times of IC50 concentration (reference value: 49.5 +/- 1.6 mg/l); type: functional
Rhizoctonia solani [5] = experiment: In vivo effect on peroxidase activity in Rhizoctonia solani assessed as total soluble sugar content per gram of dry hyphal at 0.25 times of IC50 concentration (reference value: 20.1 +/- 0.8 mg/g of dry weight); type: functional
Macrophomina phaseolina [6] = experiment: In vivo effect on peroxidase activity in Macrophomina phaseoli assessed as reduced sugar content per gram of dry hyphal at 0.1 times of IC50 concentration (reference value: 7.3 +/- 0.5 mg/g of dry weight); type: functional
[7] = system: Globisporangium debaryanum; experiment: In vivo effect on peroxidase activity in Pythium debaryanum assessed as DNA content at 2 times of IC50 concentration (reference value: 31 +/- 0.8 mg/l); type: functional
Fusarium culmorum [8] = experiment: In vivo effect on peroxidase activity in Fusarium culmorum assessed as RNA content at 0.1 times of IC50 concentration (reference value: 51.5 +/- 1.5 mg/l); type: functional
Macrophomina phaseolina [9] = experiment: In vivo effect on peroxidase activity in Macrophomina phaseoli assessed as total soluble sugar content per gram of dry hyphal at 0.25 times of IC50 concentration (reference value: 19.3 +/- 0.7 mg/g of dry weight); type: functional
Macrophomina phaseolina [10] = experiment: In vivo effect on peroxidase activity in Macrophomina phaseoli assessed as non-reducing sugar content per gram of dry hyphal at 1 times of IC50 concentration (reference value: 12 +/- 0.8 mg/g of dry weight); type: functional
Macrophomina phaseolina [11] = experiment: In vivo effect on peroxidase activity in Macrophomina phaseoli assessed as DNA content at 1 times of IC50 concentration (reference value: 15.5 +/- 0.5 mg/l); type: functional
Fusarium culmorum [12] = experiment: In vivo effect on peroxidase activity in Fusarium culmorum assessed as RNA content at 0.25 times of IC50 concentration (reference value: 51.5 +/- 1.5 mg/l); type: functional
Macrophomina phaseolina [13] = experiment: In vivo effect on peroxidase activity in Macrophomina phaseoli assessed as reduced sugar content per gram of dry hyphal at 0.5 times of IC50 concentration (reference value: 7.3 +/- 0.5 mg/g of dry weight); type: functional
Fusarium culmorum [14] = experiment: Inhibition of peroxidase activity in Fusarium culmorum at 0.1 times of IC50 concentration
Macrophomina phaseolina [15] = experiment: In vivo effect on peroxidase activity in Macrophomina phaseoli assessed as non-reducing sugar content per gram of dry hyphal at 0.1 times of IC50 concentration (reference value: 12 +/- 0.8 mg/g of dry weight); type: functional
Fusarium culmorum [16] = experiment: Fungicidal activity against Fusarium culmorum assessed as inhibition of hyphal growth by radial growth test; type: functional, organism-based
Fusarium culmorum [17] = experiment: In vivo effect on peroxidase activity in Fusarium culmorum assessed as DNA content at 1 times of IC50 concentration (reference value: 49.5 +/- 1.6 mg/l); type: functional
Fusarium culmorum [18] = experiment: In vivo effect on peroxidase activity in Fusarium culmorum assessed as RNA content at 1 times of IC50 concentration (reference value: 51.5 +/- 1.5 mg/l); type: functional
Rhizoctonia solani [19] = experiment: In vivo effect on peroxidase activity in Rhizoctonia solani assessed as DNA content at 0.25 times of IC50 concentration (reference value: 24 +/- 0.7 mg/l); type: functional
Rhizoctonia solani [20] = experiment: In vivo effect on peroxidase activity in Rhizoctonia solani assessed as DNA content at 1 times of IC50 concentration (reference value: 24 +/- 0.7 mg/l); type: functional
[21] = system: Globisporangium debaryanum; experiment: Fungicidal activity against Pythium debaryanum assessed as inhibition of hyphal growth by radial growth test; type: functional, organism-based
Fusarium culmorum [22] = experiment: In vivo effect on peroxidase activity in Fusarium culmorum assessed as DNA content at 2 times of IC50 concentration (reference value: 49.5 +/- 1.6 mg/l); type: functional
[23] = system: Globisporangium debaryanum; experiment: In vivo effect on peroxidase activity in Pythium debaryanum assessed as RNA content at 1 times of IC50 concentration (reference value: 32.2 +/- 0.7 mg/l); type: functional
Macrophomina phaseolina [24] = experiment: In vivo effect on peroxidase activity in Macrophomina phaseoli assessed as non-reducing sugar content per gram of dry hyphal at 0.25 times of IC50 concentration (reference value: 12 +/- 0.8 mg/g of dry weight); type: functional
Rhizoctonia solani [25] = experiment: In vivo effect on peroxidase activity in Rhizoctonia solani assessed as non-reducing sugar content per gram of dry hyphal at 0.5 times of IC50 concentration (reference value: 2.8 +/- 0.2 mg/g of dry weight); type: functional
Macrophomina phaseolina [26] = experiment: In vivo effect on peroxidase activity in Macrophomina phaseoli assessed as total soluble sugar content per gram of dry hyphal at 0.5 times of IC50 concentration (reference value: 19.3 +/- 0.7 mg/g of dry weight); type: functional
Rhizoctonia solani [27] = experiment: In vivo effect on peroxidase activity in Rhizoctonia solani assessed as total soluble sugar content per gram of dry hyphal at 1 times of IC50 concentration (reference value: 20.1 +/- 0.8 mg/g of dry weight); type: functional
Rhizoctonia solani [28] = experiment: In vivo effect on peroxidase activity in Rhizoctonia solani assessed as non-reducing sugar content per gram of dry hyphal at 0.1 times of IC50 concentration (reference value: 2.8 +/- 0.2 mg/g of dry weight); type: functional
Rhizoctonia solani [29] = experiment: In vivo effect on peroxidase activity in Rhizoctonia solani assessed as total soluble sugar content per gram of dry hyphal at 0.5 times of IC50 concentration (reference value: 20.1 +/- 0.8 mg/g of dry weight); type: functional
Fusarium culmorum [30] = experiment: In vivo effect on peroxidase activity in Fusarium culmorum assessed as RNA content at 2 times of IC50 concentration (reference value: 51.5 +/- 1.5 mg/l); type: functional
[31] = system: Globisporangium debaryanum; experiment: In vivo effect on peroxidase activity in Pythium debaryanum assessed as DNA content at 0.25 times of IC50 concentration (reference value: 31 +/- 0.8 mg/l); type: functional
Macrophomina phaseolina [32] = experiment: In vivo effect on peroxidase activity in Macrophomina phaseoli assessed as DNA content at 2 times of IC50 concentration (reference value: 15.5 +/- 0.5 mg/l); type: functional
[33] = system: Globisporangium debaryanum; experiment: In vivo effect on peroxidase activity in Pythium debaryanum assessed as RNA content at 2 times of IC50 concentration (reference value: 32.2 +/- 0.7 mg/l); type: functional
Macrophomina phaseolina [34] = experiment: In vivo effect on peroxidase activity in Macrophomina phaseoli assessed as RNA content at 1 times of IC50 concentration (reference value: 16.1 +/- 0.4 mg/l); type: functional
Rhizoctonia solani [35] = experiment: In vivo effect on peroxidase activity in Rhizoctonia solani assessed as DNA content at 0.1 times of IC50 concentration (reference value: 24 +/- 0.7 mg/l); type: functional

c1ccc(-c2cc3ccccc3[nH]2)cc1 [2-PHENYL-1H-INDOLE]
Activity (Rhizoctonia solani [1]): 28 mg/L | Activity (Macrophomina phaseolina [2]): 4.6 mg | AC50 [3]: 14.5 µg/mL (≈ 75 µM) | Activity (Fusarium culmorum [4]): 28.6 mg/L | Activity (Rhizoctonia solani [5]): 71.8 mg | Activity (Macrophomina phaseolina [6]): 6.3 mg | Activity [7]: 23.3 mg/L | Activity (Fusarium culmorum [8]): 29.7 mg/L | Activity (Macrophomina phaseolina [9]): 9.7 mg | Activity (Macrophomina phaseolina [10]): 1.3 mg | Activity (Macrophomina phaseolina [11]): 6.1 mg/L | Activity (Fusarium culmorum [12]): 24.3 mg/L | Activity (Macrophomina phaseolina [13]): 2.9 mg | inhibition (Fusarium culmorum [14]): 7.5% | Activity (Macrophomina phaseolina [15]): 2.4 mg | IC50 (Fusarium culmorum [16]): 67.4 µg/mL (≈ 349 µM) | Activity (Fusarium culmorum [17]): 25.3 mg/L | Activity (Fusarium culmorum [18]): 26.3 mg/L | Activity (Rhizoctonia solani [19]): 28.9 mg/L | Activity (Rhizoctonia solani [20]): 30.9 mg/L | IC50 [21]: 17.7 µg/mL (≈ 91.6 µM) | Activity (Fusarium culmorum [22]): 23.8 mg/L | Activity [23]: 30.6 mg/L | Activity (Macrophomina phaseolina [24]): 5.1 mg | Activity (Rhizoctonia solani [25]): 3.1 mg | Activity (Macrophomina phaseolina [26]): 4.3 mg | Activity (Rhizoctonia solani [27]): 9.8 mg | Activity (Rhizoctonia solani [28]): 14.1 mg | Activity (Rhizoctonia solani [29]): 19.1 mg | Activity (Fusarium culmorum [30]): 24.7 mg/L | Activity [31]: 19.1 mg/L | Activity (Macrophomina phaseolina [32]): 5.7 mg/L | Activity [33]: 24.2 mg/L | Activity (Macrophomina phaseolina [34]): 6.3 mg/L | Activity (Rhizoctonia solani [35]): 28.3 mg/L

CC(=O)n1c(-c2ccccc2)cc2ccccc21
Activity (Rhizoctonia solani [1]): 36.1 mg/L | Activity (Macrophomina phaseolina [2]): 14.8 mg | AC50 [3]: < 11.7 µg/mL | Activity (Fusarium culmorum [4]): 43.6 mg/L | Activity (Rhizoctonia solani [5]): 10.8 mg | Activity (Macrophomina phaseolina [6]): 2.5 mg | Activity [7]: 21.6 mg/L | Activity (Fusarium culmorum [8]): 45.4 mg/L | Activity (Macrophomina phaseolina [9]): 22.2 mg | Activity (Macrophomina phaseolina [10]): 8.9 mg | Activity (Macrophomina phaseolina [11]): 8.2 mg/L | Activity (Fusarium culmorum [12]): 31.1 mg/L | Activity (Macrophomina phaseolina [13]): 20.8 mg | inhibition (Fusarium culmorum [14]): 85% | Activity (Macrophomina phaseolina [15]): 1.7 mg | IC50 (Fusarium culmorum [16]): 86.7 µg/mL (≈ 368 µM) | Activity (Fusarium culmorum [17]): 27.2 mg/L | Activity (Fusarium culmorum [18]): 28.3 mg/L | Activity (Rhizoctonia solani [19]): 25.2 mg/L | Activity (Rhizoctonia solani [20]): 31.4 mg/L | IC50 [21]: 15 µg/mL (≈ 63.8 µM) | Activity (Fusarium culmorum [22]): 19.5 mg/L | Activity [23]: 18.2 mg/L | Activity (Macrophomina phaseolina [24]): 7.4 mg | Activity (Rhizoctonia solani [25]): 0.4 mg | Activity (Macrophomina phaseolina [26]): 31 mg | Activity (Rhizoctonia solani [27]): 2.8 mg | Activity (Rhizoctonia solani [28]): 2.5 mg | Activity (Rhizoctonia solani [29]): 6 mg | Activity (Fusarium culmorum [30]): 20.3 mg/L | Activity [31]: 25.8 mg/L | Activity (Macrophomina phaseolina [32]): 6.5 mg/L | Activity [33]: 22.5 mg/L | Activity (Macrophomina phaseolina [34]): 8.5 mg/L | Activity (Rhizoctonia solani [35]): 23.2 mg/L
